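In this assay, cells in 96-well plates receive the compound at five concentrations for 48 hours. Endpoints are linearly interpolated between the surrounding concentrations. TGI denotes the concentration required for complete inhibition of growth.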
What was measured:
Test in all cases: inhibition of tumour cell growth, NCI panel, 48 h
[1] = tested on: EKVX NSCLC
[2] = tested on: SF-268 CNS
[3] = tested on: NCI-H226 lung
[4] = tested on: RXF 393 renal
[5] = tested on: CAKI-1 renal
[6] = tested on: HCT-116 colon
[7] = tested on: A549 NSCLC
[8] = tested on: BT-549 breast
[9] = tested on: PC-3 prostate
[10] = tested on: SF-539 CNS

SMILES | TGI [1] | TGI [2] | TGI [3] | TGI [4] | TGI [5] | TGI [6] | TGI [7] | TGI [8] | TGI [9] | TGI [10]
CN(C)c1ccc(C(=NN)c2ccc(N(C)C)cc2)cc1 | > 100 µM | > 100 µM | > 62.4 µM | > 32.7 µM | > 51 µM | > 100 µM | > 100 µM | > 100 µM | > 23.5 µM | 
Oc1ccc(-c2cn3cc(C(F)(F)F)ccc3n2)cc1 | > 100 µM | > 100 µM | > 100 µM | > 100 µM | > 100 µM | > 100 µM | > 100 µM | > 100 µM | > 100 µM | 
COC(=O)[C@@H]1Cc2cc(O)c(O)cc2C2(CCN(C)CC2)O1 | > 10 µM | > 10 µM | > 10 µM | > 10 µM | > 10 µM | > 10 µM | > 10 µM | > 10 µM | > 10 µM | > 10 µM
CC(C)CN(CC#N)CC(C)C | > 100 µM | > 100 µM | > 100 µM | > 100 µM | > 100 µM | > 100 µM | > 100 µM | > 100 µM | > 100 µM | 
CN1C(=O)C23CCCCC2CC1(c1ccccc1)S3 (stereo not given) | > 100 µM | > 100 µM | > 100 µM | > 100 µM | > 100 µM | > 100 µM | > 100 µM | > 100 µM | > 100 µM | > 100 µM
NC(N)=NC(N)=Nc1ccccc1 (tested in a mixture with another compound) | > 100 µM | > 100 µM | > 100 µM | > 100 µM | > 100 µM | > 100 µM | > 100 µM | > 100 µM | > 100 µM | > 100 µM
CC(=O)OCC(OC(C)=O)C(OC(C)=O)C(OC(C)=O)C(/C=N\Nc1nc2ccccc2c(=O)[nH]1)=N/Nc1nc2ccccc2c(=O)[nH]1 (stereo not given) | > 100 µM | > 100 µM | > 100 µM | > 100 µM | > 100 µM | > 100 µM | > 100 µM | > 100 µM | > 100 µM | > 100 µM
COc1ccc(/C=C2/CCS(=O)(=O)c3ccc(C)cc3C2=O)cc1OC | 40.3 µM | > 100 µM | 70.8 µM | 29.6 µM | 47.5 µM | 21.8 µM | > 100 µM | 35.6 µM | 58.9 µM | > 100 µM
CCN(CC)COC(=S)S | > 100 µM | > 100 µM | > 100 µM | > 56.1 µM | > 100 µM | > 100 µM | > 100 µM | > 100 µM | > 100 µM | > 100 µM
N#Cc1c(N)c(C#N)c2c(c1-c1ccc(Cl)cc1)COc1ccccc1-2 | 28.5 µM | > 100 µM | 98.9 µM | 30.4 µM |  | 40.7 µM | 33.2 µM | 65.2 µM | 42.6 µM | 49.1 µM
C[C@]12CC/C(=N\OCCN3CCCCC3)C=C1CCC1C2CC[C@@]2(C)C1CC[C@]2(C)O (stereo not given in full) | 44.6 µM | 31 µM | 14.2 µM | 56.5 µM | 23.7 µM | 21.3 µM | 35 µM | 33.5 µM | 49.5 µM | 22.5 µM
COc1ccc2c(-c3ccc(O)cc3)c(Oc3ccc(Cl)cc3)c(=O)oc2c1 | 12.5 µM | 24.6 µM | > 43.3 µM | 25 µM | 10.2 µM | > 33.6 µM | > 29.5 µM | 23.3 µM | 24.4 µM | 28.8 µM
NC(=O)C(Nc1ccc(Cl)cc1)c1cc2cc(Br)ccc2nc1Cl (stereo not given) | > 50 µM | > 50 µM | > 50 µM | > 50 µM | > 50 µM | > 50 µM | > 50 µM | > 50 µM | > 50 µM | > 50 µM
CCN(CC)C(=S)SS(=O)(=O)c1ccccc1[N+](=O)[O-] | > 100 µM | > 100 µM | > 93.8 µM | 45.4 µM | 54.9 µM | > 59.1 µM | > 100 µM | > 80.6 µM | > 100 µM | 34.1 µM
CC(NC(NC(C)C12CC3CC(CC(C3)C1)C2)=C(C(Cl)=C(Cl)Cl)[N+](=O)[O-])C12CC3CC(CC(C3)C1)C2 (stereo not given) | > 89.4 µM | > 59.5 µM | > 61.7 µM | 62.9 µM | > 100 µM | 40 µM | 25.7 µM | > 91.6 µM | > 65.2 µM | 69 µM
N#CCCN(CCC#N)c1ccc(C(N=Nc2ccc(Cl)cc2)=Nc2ccc(F)cc2)cc1 | > 100 µM | > 100 µM | > 100 µM | > 100 µM | > 100 µM | > 100 µM | > 100 µM | > 100 µM | > 100 µM | > 100 µM
O=C1C(Cl)C(c2cc3cc(Br)ccc3nc2Cl)N1c1c(Cl)cccc1Cl (stereo not given) | 22.2 µM | > 25 µM | > 25 µM | > 25 µM | > 25 µM | > 25 µM | > 25 µM | > 25 µM | > 25 µM | 10.7 µM
OC(c1ccccc1)C(F)(F)c1nc2ccccc2o1 (stereo not given) | > 100 µM | > 100 µM | > 100 µM | > 100 µM | > 100 µM | > 100 µM |  | > 100 µM | > 100 µM | > 100 µM
O=C1CN(c2ccc(Cl)cc2)C(=O)CN1NCNN1CC(=O)N(c2ccc(Cl)cc2)CC1=O | > 100 µM | > 100 µM |  | > 100 µM | > 100 µM | > 100 µM | > 100 µM | > 100 µM | > 100 µM | > 100 µM
CN(C)c1ccc(C2ON=C(c3ccccc3)N2C23CC4CC(CC(C4)C2)C3)cc1 (stereo not given) | > 10 µM | > 10 µM | > 10 µM | > 10 µM | > 10 µM | > 10 µM | > 10 µM | > 10 µM | > 10 µM | > 10 µM
CCCOC1OC(CS(=O)(=O)O)C(O)C(O)C1O (stereo not given) |  |  | > 100 µM | > 100 µM | > 100 µM | > 100 µM |  | > 100 µM | > 100 µM | 

From PubChem BioAssay (NCI)
